Experimental data as given in PubChem BioAssay (NCI).
Values joined by “and” are separate entries in the source; they are usually repeats but may differ in a detail not shown here. Equal entries are not always repeated.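 Following 48 hours of exposure in 96-well plates, responses at five concentrations were used to interpolate endpoints linearly. Here, GI50 denotes the concentration required for 50% inhibition of growth. At the TGI there is no net growth.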

Key:
Assay in all cases: DTP human tumour cell line panel, 48 h
HL-60(TB) leukemia = test system: HL-60(TB) leukemia
MDA-MB-435 = test system: MDA-MB-435
PC-3 prostate = test system: PC-3 prostate
RPMI-8226 leukemia = test system: RPMI-8226 leukemia
SF-295 CNS = test system: SF-295 CNS
SK-MEL-2 melanoma = test system: SK-MEL-2 melanoma
SK-MEL-28 melanoma = test system: SK-MEL-28 melanoma
SK-OV-3 ovarian = test system: SK-OV-3 ovarian
SR leukemia = test system: SR leukemia
TK-10 renal = test system: TK-10 renal

| Structure (SMILES) | GI50 (HL-60(TB) leukemia) | TGI (HL-60(TB) leukemia) | GI50 (MDA-MB-435) | TGI (MDA-MB-435) | GI50 (PC-3 prostate) | TGI (PC-3 prostate) | GI50 (RPMI-8226 leukemia) | TGI (RPMI-8226 leukemia) | GI50 (SF-295 CNS) | TGI (SF-295 CNS) | GI50 (SK-MEL-2 melanoma) | TGI (SK-MEL-2 melanoma) | GI50 (SK-MEL-28 melanoma) | TGI (SK-MEL-28 melanoma) | GI50 (SK-OV-3 ovarian) | TGI (SK-OV-3 ovarian) | GI50 (SR leukemia) | TGI (SR leukemia) | GI50 (TK-10 renal) | TGI (TK-10 renal) |
| --- | --- | --- | --- | --- | --- | --- | --- | --- | --- | --- | --- | --- | --- | --- | --- | --- | --- | --- | --- | --- |
| CC(=O)Oc1ccc(C2(c3ccc(OC(C)=O)cc3)C(=O)Nc3ccccc32)cc1 | 15.1 µM and 30.9 µM | > 71.9 µM | 30.6 µM and 29.8 µM | > 100 µM | 5.19 µM and 14.3 µM | > 100 µM | 20.5 µM and 17.6 µM | > 93.2 µM | 23.5 µM and 38.3 µM | > 100 µM | 30.4 µM and 52.8 µM | 96.9 µM and > 100 µM | 35.1 µM and 34.2 µM | > 100 µM | 31.8 µM and 58.9 µM | > 100 µM | 25.1 µM and 24.2 µM | > 100 µM | 3.14 µM and 17.6 µM | > 100 µM |
| O=C(O)C1C2C=CC(O2)C1C(=O)Nc1ncccn1 (stereo not drawn) |  | > 100 µM |  | > 100 µM |  | > 100 µM |  | > 100 µM |  | > 100 µM |  | > 100 µM |  | > 100 µM |  | > 100 µM |  | > 100 µM |  | > 100 µM |
| COc1cc([C@H]2c3[nH]c4ccccc4c3C[C@H]3COC(=O)N32)cc(OC)c1O |  | 14.5 µM |  | > 100 µM |  | > 100 µM |  | 11.1 µM |  | 81.8 µM |  |  |  | > 80 µM |  |  |  | 0.285 µM |  | 27 µM |
| Cn1cnc([N+](=O)[O-])c1Sc1nc(N)nc2nc[nH]c12 | 5.69 µM | > 100 µM | 3.31 µM | > 100 µM | 7.91 µM | > 100 µM | 3.52 µM | > 94 µM | 0.635 µM | > 100 µM | 6.16 µM | > 100 µM | > 42.5 µM | > 100 µM | 0.727 µM | > 100 µM | 0.682 µM | > 100 µM | 5.75 µM | > 100 µM |
| Cn1cc(CO)c2ccccc21 | 32.5 µM | > 100 µM | 3.45 µM | 21 µM | 85 µM | > 100 µM | 99.9 µM | > 100 µM | 34.2 µM | > 100 µM | 36.2 µM | > 100 µM | 85.9 µM | > 100 µM | 77.5 µM | > 100 µM | 17.9 µM | > 100 µM | > 100 µM | > 100 µM |
| COc1ccc(/C=C(/C(=O)n2cnnn2)c2cc(OC)c(OC)c(OC)c2)cc1 | 2.77 µM | > 100 µM | 0.614 µM | 3.24 µM | 4.03 µM | > 100 µM | 3.68 µM | > 100 µM | 3.24 µM | > 100 µM | 6.64 µM | > 100 µM | 7.37 µM | > 100 µM | 5.26 µM | > 100 µM | 0.752 µM | > 100 µM | 7.59 µM | > 100 µM |
| CC[C@H](C)[C@H](NC(=O)[C@H]1CCCCN1C)C(=O)N(C)[C@H](C[C@@H](OC(C)=O)c1nc(C(=O)N[C@@H](Cc2ccccc2)C[C@H](C)C(=O)OC)cs1)C(C)C | 0.000249 µM and < 0.0025 µM | 0.000743 µM and < 0.0025 µM | < 0.0025 µM | < 0.0025 µM |  | > 25 µM |  | 8.97 µM |  | 0.000762 µM and 0.00468 µM | 0.000463 µM and < 0.0025 µM | < 0.0025 µM | > 25 µM | > 25 µM | 0.000264 µM and 0.0025 µM | > 25 µM |  | 9.59 µM | 0.0254 µM |  |
